Source: patent US9486447B2, “Compositions and methods for controlling neuronal excitation” (The General Hospital Corporation, priority 2011, dated 2016)

Columns and labels:
5-HT7 = 5-HT7 (Homo sapiens, UniProt P34969); experiment: NIMH PDSP binding assay; conditions: primary screening, mean of N = 4 determinations
Source text: (§1) To determine if optovin's mechanism of action could be predicted via behavioral profiling^30,32, optovin's behavioral profile was compared to the behavioral profiles of 700 annotated neuroactive compounds tested in triplicate. These compounds include ligands targeting the adrenergic, serotonergic, histaminergic, dopaminergic, cholinergic and glutamatergic pathways. […] To gain insight into optovin's mechanism of action, optovin and two active optovin analogs were profiled using the National Institutes of Mental Health Psychoactive Drug Screening Program (NIMH PDSP) to determine their activities against a panel of human and rodent CNS receptors, channels and transporters.
(§2) Activity determinations were generously provided by the National Institute of Mental Health's Psychoactive Drug Screening Program, Contract # HHSN-271-2008-00025-C(NIMH PDSP). Complete assay details are found on-line at: http://pdsp.med.unc.edu/UNC-CH %20Protocol %20Book.pdf

5-HT1B = 5-HT1B (Homo sapiens, UniProt P28222); experiment: NIMH PDSP binding assay; conditions: primary screening, mean of N = 4 determinations
Source text: as §1, §2

SERT = target: T1, SERT (Homo sapiens, UniProt P31645); experiment: NIMH PDSP binding assay; conditions: primary screening, mean of N = 4 determinations
T1 construct: NIMH PDSP
Source text: as §1, §2

A2B2 = A2B2 (Rattus norvegicus, UniProt P12389+P12390); experiment: NIMH PDSP binding assay; conditions: primary screening, mean of N = 4 determinations
Source text: as §1, §2

D3 = target: T2, D3 (Homo sapiens, UniProt P35462); experiment: NIMH PDSP binding assay; conditions: primary screening, mean of N = 4 determinations
T2 construct: NIMH PDSP
Source text: as §1, §2

A3B4 = A3B4 (Rattus norvegicus, UniProt P04757+P12392); experiment: NIMH PDSP binding assay; conditions: primary screening, mean of N = 4 determinations
Source text: as §1, §2

Alpha1D = Alpha1D (Homo sapiens, UniProt P25100); experiment: NIMH PDSP binding assay; conditions: primary screening, mean of N = 4 determinations
Source text: as §1, §2

adult zebrafish = experiment: 405 nm laser illumination of adult and spinalized zebrafish; type: in vivo
Description: Optovin's capacity to function in intact adult animals will impact its suitability for future clinical and research applications. Thus, the effects of 405 nm laser illumination on optovin-treated adult zebrafish were analyzed. […] To determine if fin contraction was voluntary or involuntary, the experiment was repeated using spinalized preparations. Optical control of dorsal fin contraction was preserved in spinalized animals treated with optovin (data not shown). Furthermore, carefully controlled laser illumination of specific regions along the body of spinalized zebrafish produced specific dorsal, ventral, and lateral tail movements reminiscent of those used by intact fish during swimming (data not shown). Because zebrafish TRPA1 is primarily expressed in sensory neurons, these contractions and swimming behaviors likely occur via activation of spinal reflex arcs.
Adult zebrafish (0.5-1.5 years) were briefly anesthetized in ice water and quickly decapitated with a sharp razor blade. Spinalized preparations were incubated in optovin (50 μM) for 1-2 min prior to testing with laser light stimuli (405 nm, 400 μW mm−2).

[1] = test system: dorsal root ganglia (DRG) sensory neurons; experiment: Calcium imaging of DRG sensory neurons; type: cell-based, mouse
Description: To determine if optovin acts on sensory neurons, the activity of treated and untreated dorsal root ganglia (DRG) sensory neurons isolated from wild type mice were compared. […] TRPA1 channels play important roles in detecting chemical, thermal, and mechanical stimuli in a variety of organisms^34,35.
C57Bl/6 male mice (3-4 weeks old) were decapitated and DRG were dissected into 4° C. Hank's Balanced Salt Solution (HBSS; Gibco), then neurons were dissociated using collagenase (1 mg/mL; Worthington) and dispase (5 mg/mL; Gibco) dissolved in HBSS. Neurons were plated in Neurobasal-A medium (Invitrogen), supplemented with B-27 Supplement (Gibco), L-glutamine (Gibco), and penicillin-streptomycin (Gibco). The neurons were plated onto coverslips coated with 0.1 mg/mL poly-D-lysine (Sigma) and 5 μg/mL laminin (Sigma). After 24 h, neurons were washed with assay buffer (HBSS, supplemented with 9 mM HEPES, 11 mM D-glucose, 0.1% fatty-acid free BSA, pH 7.3) and incubated for 1 h with 2 μM Fura2-AM (Invitrogen) with 0.2% pluronic (Invitrogen) in assay buffer in the dark at room temperature. The neurons were then washed with assay buffer and allowed to equilibrate at room temperature for 30 min prior to imaging. After a 120 s baseline perfusion of assay buffer containing 3.3% DMSO, 100 μM optovin dissolved in the DMSO-assay buffer solution, or the DMSO-assay buffer solution alone as a control, was perfused onto the neurons for a period of 1 min. Fura-2 is activated with UV-light, and the process of imaging Fura-2 was enough to activate the optovin. […] Following this one-minute period, cells were perfused with DMSO-assay buffer to remove the agonist, which was followed by addition of 100 μM mustard oil (in DMSO-assay buffer) to determine the total number of TrpA1-expressing neurons present. Images were acquired on a Nikon Eclipse Ti microscope (Nikon, Melville, N.Y.).

hERG potassium channel = hERG potassium channel (Homo sapiens, UniProt Q12809); experiment: hERG inhibition, FluxOR system; type: cell-based; conditions: with or without prior exposure to light
Description: Optovin (PDSP 22594) was tested for hERG inhibition using the FluxOR system with cisapride as a positive control.

hTRPA1 = target: T3, hTRPA1 (Homo sapiens, UniProt O75762); experiment: Calcium imaging of transfected HEK cells; type: cell-based
T3 construct: expressed in transfected cells; host or cells: HEK293 / HEK293T
Description: To determine if TRPA1 is sufficient for optovin activity, current density amplitudes were analyzed via whole-cell patch clamping in HEK293T cells transfected with the human TrpA1 (hTrpA1) gene.
HEK293 cells were plated onto poly-lysine-coated glass bottom culture dishes (MatTek Corp), and grown in Dulbecco's Modified Eagle's Medium (DMEM, Sigma) supplemented with 10% fetal bovine serum and 100 U/mL penicillin and 100 μg/ml streptomycin. After 24 hrs, cells were transfected, according to manufacturer's instructions, in Opti-MEM media, using 4 μl lipofectamine 2000 (Invitrogen), 0.5 ug EGFP in pcDNA, and 0.3 μg TrpA1 DNA per dish. Media was replaced after 2 hours, and cells were cultured for an additional 17 hours. As previously described for neurons, HEK cells were washed with assay buffer (HBSS Gibco 14025, supplemented with 9 mM HEPES, 11 mM D-glucose, 0.1% fatty-acid free BSA, pH 7.3) and incubated for 1 h with 2 μM Fura2-AM (Invitrogen) with 0.2% pluronic (Invitrogen) in assay buffer in the dark at room temperature. The cells were then washed with assay buffer and allowed to equilibrate at room temperature for 30 min prior to imaging. At the start of the imaging session for each dish, cells were replaced with DMSO-assay buffer. After 50 seconds of imaging, assay buffer was aspirated by hand, and replaced with 100 μM optovin dissolved in the DMSO-assay buffer solution. Each dish of HEK cells was imaged for a total of 3 minutes.
Cells were transfected with the hTRPA1^44, TRPA1 C621S^44, hTRPA1 C633S^45 and hTRPA1 C633S, C856S^45 plasmids as described.

T3 sequence (O75762 whole entry): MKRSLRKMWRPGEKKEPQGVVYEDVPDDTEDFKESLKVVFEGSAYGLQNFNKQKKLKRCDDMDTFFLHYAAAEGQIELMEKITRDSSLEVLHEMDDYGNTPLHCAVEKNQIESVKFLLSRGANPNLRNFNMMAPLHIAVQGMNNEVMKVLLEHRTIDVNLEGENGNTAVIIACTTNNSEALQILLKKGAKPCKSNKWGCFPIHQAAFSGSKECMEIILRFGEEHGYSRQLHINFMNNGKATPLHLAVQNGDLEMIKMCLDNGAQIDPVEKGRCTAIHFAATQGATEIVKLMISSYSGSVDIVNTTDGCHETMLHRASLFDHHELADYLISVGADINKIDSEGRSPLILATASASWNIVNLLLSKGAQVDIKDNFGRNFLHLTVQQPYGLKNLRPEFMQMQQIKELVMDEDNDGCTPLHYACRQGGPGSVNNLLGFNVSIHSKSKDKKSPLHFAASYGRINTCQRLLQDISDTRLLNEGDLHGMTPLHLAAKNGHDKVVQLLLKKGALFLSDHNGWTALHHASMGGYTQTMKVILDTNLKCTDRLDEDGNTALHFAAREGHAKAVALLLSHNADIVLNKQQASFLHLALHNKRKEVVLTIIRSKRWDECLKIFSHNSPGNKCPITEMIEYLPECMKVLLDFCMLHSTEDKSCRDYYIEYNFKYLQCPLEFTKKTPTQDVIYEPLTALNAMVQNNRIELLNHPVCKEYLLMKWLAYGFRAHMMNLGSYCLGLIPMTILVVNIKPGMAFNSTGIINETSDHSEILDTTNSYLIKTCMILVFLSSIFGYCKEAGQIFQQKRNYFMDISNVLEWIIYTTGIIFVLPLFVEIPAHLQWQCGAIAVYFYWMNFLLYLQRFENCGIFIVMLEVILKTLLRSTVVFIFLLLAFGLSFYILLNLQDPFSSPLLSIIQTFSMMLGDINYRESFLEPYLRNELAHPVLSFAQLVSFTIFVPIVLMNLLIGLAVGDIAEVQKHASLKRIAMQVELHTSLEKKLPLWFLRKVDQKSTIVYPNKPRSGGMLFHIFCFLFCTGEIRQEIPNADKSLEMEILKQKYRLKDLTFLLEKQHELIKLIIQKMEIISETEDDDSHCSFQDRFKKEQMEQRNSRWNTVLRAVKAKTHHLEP
Sequence of hERG potassium channel (Q12809 whole entry): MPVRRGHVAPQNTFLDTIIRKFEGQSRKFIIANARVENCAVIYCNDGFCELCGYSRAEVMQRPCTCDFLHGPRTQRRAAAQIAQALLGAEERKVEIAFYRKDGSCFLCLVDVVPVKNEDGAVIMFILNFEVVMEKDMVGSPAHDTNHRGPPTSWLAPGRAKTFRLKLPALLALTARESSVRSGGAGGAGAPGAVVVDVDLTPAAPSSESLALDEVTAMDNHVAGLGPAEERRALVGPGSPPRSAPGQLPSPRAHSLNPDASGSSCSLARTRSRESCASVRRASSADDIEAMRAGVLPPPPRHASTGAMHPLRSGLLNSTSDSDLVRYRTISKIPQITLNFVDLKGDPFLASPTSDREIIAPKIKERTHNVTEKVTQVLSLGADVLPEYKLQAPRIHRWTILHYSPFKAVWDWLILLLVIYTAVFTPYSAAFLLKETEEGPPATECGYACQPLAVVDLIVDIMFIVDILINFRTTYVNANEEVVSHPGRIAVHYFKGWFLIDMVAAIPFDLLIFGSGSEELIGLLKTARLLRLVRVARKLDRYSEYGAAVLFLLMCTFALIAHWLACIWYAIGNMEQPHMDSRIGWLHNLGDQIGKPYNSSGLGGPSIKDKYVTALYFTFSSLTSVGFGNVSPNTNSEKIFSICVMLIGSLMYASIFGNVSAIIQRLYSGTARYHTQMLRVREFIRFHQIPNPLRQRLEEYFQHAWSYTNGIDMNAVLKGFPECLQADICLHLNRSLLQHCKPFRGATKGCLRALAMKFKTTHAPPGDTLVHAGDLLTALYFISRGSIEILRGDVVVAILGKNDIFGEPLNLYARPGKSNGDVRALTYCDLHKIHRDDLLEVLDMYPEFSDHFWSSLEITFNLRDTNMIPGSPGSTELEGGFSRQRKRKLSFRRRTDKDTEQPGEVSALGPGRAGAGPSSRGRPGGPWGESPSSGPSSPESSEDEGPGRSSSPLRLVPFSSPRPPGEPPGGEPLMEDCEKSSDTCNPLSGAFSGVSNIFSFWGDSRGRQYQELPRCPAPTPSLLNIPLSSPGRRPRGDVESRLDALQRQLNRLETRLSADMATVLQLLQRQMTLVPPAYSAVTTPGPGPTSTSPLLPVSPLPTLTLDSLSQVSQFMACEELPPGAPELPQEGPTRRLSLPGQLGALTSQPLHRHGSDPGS
Sequence of Alpha1D (P25100 whole entry): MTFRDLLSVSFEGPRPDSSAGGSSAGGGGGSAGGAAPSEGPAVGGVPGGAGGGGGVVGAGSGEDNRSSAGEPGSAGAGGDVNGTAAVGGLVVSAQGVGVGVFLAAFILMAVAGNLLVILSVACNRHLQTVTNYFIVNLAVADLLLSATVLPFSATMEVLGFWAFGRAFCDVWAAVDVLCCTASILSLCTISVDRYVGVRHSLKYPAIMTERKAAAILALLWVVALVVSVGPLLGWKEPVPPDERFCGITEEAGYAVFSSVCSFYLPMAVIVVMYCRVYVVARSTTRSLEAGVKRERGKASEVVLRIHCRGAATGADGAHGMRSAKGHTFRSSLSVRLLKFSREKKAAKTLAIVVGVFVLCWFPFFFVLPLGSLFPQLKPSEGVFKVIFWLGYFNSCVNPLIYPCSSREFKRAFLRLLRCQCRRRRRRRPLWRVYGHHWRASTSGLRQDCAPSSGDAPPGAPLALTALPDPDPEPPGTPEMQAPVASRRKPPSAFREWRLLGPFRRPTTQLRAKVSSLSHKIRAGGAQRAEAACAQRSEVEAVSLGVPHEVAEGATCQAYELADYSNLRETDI
Sequence of A2B2 (P12389 28-511): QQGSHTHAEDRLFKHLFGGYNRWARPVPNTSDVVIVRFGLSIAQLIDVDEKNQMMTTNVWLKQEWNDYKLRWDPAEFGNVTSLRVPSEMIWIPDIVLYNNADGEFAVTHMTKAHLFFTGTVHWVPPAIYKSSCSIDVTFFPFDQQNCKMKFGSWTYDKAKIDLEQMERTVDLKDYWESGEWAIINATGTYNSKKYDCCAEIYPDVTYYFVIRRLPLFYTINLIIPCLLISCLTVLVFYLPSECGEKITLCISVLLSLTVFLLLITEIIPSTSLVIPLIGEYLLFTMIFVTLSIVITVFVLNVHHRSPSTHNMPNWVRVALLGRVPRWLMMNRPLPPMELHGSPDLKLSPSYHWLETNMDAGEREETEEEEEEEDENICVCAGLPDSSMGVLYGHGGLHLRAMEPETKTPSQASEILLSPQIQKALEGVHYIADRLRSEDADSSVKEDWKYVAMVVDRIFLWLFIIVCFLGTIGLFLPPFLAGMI
Sequence of A2B2 (P12390 25-500): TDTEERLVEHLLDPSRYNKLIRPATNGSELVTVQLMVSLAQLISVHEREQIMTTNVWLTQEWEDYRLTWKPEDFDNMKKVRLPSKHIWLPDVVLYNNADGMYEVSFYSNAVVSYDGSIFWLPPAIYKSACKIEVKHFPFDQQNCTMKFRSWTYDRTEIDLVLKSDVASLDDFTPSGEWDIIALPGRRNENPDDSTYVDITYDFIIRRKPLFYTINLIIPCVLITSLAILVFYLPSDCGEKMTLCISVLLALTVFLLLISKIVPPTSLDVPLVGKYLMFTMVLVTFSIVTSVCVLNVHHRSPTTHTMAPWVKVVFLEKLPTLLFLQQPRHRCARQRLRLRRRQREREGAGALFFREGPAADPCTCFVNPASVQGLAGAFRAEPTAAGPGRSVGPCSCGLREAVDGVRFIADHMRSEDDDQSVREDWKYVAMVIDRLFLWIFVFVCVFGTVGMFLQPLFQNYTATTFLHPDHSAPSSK
T1 sequence (P31645 whole entry, species assumed): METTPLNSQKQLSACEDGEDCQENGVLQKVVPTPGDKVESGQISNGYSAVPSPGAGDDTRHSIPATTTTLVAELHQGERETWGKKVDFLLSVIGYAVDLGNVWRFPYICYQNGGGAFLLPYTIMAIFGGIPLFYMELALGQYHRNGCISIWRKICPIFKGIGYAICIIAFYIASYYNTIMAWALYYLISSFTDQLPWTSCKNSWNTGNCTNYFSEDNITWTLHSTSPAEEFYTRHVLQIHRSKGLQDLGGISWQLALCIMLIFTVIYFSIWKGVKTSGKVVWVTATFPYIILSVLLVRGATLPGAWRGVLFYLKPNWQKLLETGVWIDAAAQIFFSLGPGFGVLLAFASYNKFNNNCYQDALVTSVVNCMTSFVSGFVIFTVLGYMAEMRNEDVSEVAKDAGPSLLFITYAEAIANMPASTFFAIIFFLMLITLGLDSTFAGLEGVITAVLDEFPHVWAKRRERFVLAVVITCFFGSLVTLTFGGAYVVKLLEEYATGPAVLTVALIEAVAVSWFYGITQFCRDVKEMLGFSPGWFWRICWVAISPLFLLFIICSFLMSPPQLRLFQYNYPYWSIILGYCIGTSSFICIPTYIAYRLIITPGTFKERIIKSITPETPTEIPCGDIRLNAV
Sequence of 5-HT1B (P28222 whole entry, species assumed): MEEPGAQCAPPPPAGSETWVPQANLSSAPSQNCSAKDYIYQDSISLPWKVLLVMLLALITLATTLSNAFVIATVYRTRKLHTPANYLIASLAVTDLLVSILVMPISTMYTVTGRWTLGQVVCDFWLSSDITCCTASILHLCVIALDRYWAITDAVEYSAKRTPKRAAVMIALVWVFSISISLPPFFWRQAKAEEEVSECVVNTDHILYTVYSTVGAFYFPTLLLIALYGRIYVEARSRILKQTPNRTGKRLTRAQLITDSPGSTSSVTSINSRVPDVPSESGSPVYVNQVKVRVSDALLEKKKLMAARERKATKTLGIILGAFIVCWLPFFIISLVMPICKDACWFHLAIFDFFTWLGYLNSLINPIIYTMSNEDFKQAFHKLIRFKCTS

Compound: Cc1cc(/C=C2/SC(=S)NC2=O)c(C)n1-c1cccnc1 [optovin]
- Avg % inhibition (5-HT7) (5-HT7): −0.8%
- Avg % inhibition (5-HT1B) (5-HT1B): 11.8%
- Avg % inhibition (SERT) (SERT): 75.8%
- Avg % inhibition (A2B2) (A2B2): −19.2%
- Avg % inhibition (D3) (D3): 34.3%
- Avg % inhibition (A3B4) (A3B4): −12.5%
- Avg % inhibition (Alpha1D) (Alpha1D): 30.4%
- dorsal fin response to 405 nm laser illumination (adult zebrafish; intact adult zebrafish): rapid and reversible contraction of the fin
- optical control of dorsal fin contraction (adult zebrafish; spinalized animals): preserved
- activation of DRG neurons with light ([1]; 100 μM optovin, illuminated (Fura-2 imaging)): strongly activated
- activation of DRG neurons in the dark ([1]; optovin treatment in the dark): did not occur
- effect on hERG activity (hERG potassium channel): no effect on hERG activity
- change in fluorescence in response to light and optovin (hTRPA1; WT channels): strong change in fluorescence
- effect of catalase and superoxide dismutase on optovin's effects (hTRPA1; hTRPA1 transfected HEK cells): Neither catalase nor superoxide dismutase reduce optovin's effects
- calcium levels (hTRPA1; optovin and light, HEK cells transfected with hTrpA1): elevated calcium levels were observed
